The values below come from patent US20240294531A1, “COVALENT HETEROCYCLES AND USES THEREOF” (Kumquat Biosciences Inc., priority 2022, published 2024).

Broadly, the IC50 is the concentration that gives 50% inhibition.

One assay has as its target BTK C481S protein (Homo sapiens (Human), UniProt Q06187, C481S). In words: BTK C481S HTRF displacement assay. The settings on record: 1-hour incubation. The assay is classed as binding. Summed up: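 Tracer displacement read by HTRF after 1 hour at room temperature: GST-BTK C481S 2-659, 50 nM tracer 239 (Kd 54 nM), anti-GST antibody, compound in six four-fold doses from 5 μM. Percent inhibition versus DMSO fitted (bottom 0, top 100) for IC50, converted to KI via Cheng-Prusoff.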

For another assay, the target named is BTK wildtype protein (Homo sapiens (Human), UniProt Q06187). Kind of assay: BTK wildtype HTRF displacement assay. Format: binding. As to conditions: 1-hour incubation; read-out: BTK (wt) IC50. Summed up:
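Tracer-displacement HTRF format: compound and tracer 239 compete at the BTK active site, detected via anti-GST-Tb on GST-tagged full-length enzyme. One-hour room-temperature incubation; compounds dosed at six four-fold steps down from 5 μM. Percent inhibition versus DMSO gives IC50 by constrained four-parameter logistic fit.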

BTK wildtype protein, sequence (Q06187 2-659): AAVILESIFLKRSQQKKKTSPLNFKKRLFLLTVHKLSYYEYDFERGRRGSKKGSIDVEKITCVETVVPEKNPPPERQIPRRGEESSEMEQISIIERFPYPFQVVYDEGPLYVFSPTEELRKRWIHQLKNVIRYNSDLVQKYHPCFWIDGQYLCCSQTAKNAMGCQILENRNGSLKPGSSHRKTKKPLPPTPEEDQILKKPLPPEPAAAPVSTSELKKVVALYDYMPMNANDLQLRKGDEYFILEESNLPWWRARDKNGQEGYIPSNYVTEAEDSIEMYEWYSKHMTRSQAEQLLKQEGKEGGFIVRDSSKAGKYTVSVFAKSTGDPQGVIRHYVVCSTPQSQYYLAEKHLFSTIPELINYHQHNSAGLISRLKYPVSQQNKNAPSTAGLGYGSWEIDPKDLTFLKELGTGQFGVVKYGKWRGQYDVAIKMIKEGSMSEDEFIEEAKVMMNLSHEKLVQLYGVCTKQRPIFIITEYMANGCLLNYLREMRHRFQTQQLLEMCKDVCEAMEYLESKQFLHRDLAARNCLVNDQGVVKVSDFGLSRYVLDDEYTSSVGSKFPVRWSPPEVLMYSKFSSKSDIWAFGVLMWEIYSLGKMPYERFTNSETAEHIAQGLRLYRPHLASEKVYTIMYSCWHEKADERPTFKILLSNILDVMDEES
BTK C481S protein, sequence (Q06187 2-659 C481S): as the sequence (Q06187 2-659) above, with C480S counted along it

For `CN(C(=O)n1cncn1)C1CC(C2CCNc3c(C(N)=O)c(-c4ccc(Oc5ccccc5)cc4)nn32)C1` (stereo not shown) [Compound 115, 7-(3-(N-methyl-1H-1,2,4-triazole-1-carboxamido)cyclobutyl)-2-(4-phenoxyphenyl)-4,5,6,7-tetrahydropyrazolo[1,5-a]pyrimidine-3-carboxamide], the IC50 on BTK C481S protein and on BTK wildtype protein was not above 1000 nM in each case.
Take `COc1ccc(F)cc1C(=O)NCc1ccc(-c2nn(C[C@H](C3CC3)N(C)C(=O)n3cncn3)c3ncnc(N)c23)cc1` [Compound 132, (S)-N-(2-(4-amino-3-(4-((5-fluoro-2-methoxybenzamido)methyl)phenyl)-1H-pyrazolo[3,4-d]pyrimidin-1-yl)-1-cyclopropylethyl)-N-methyl-1H-1,2,4-triazole-1-carboxamide]: the IC50 at BTK C481S protein and on BTK wildtype protein was more than 1000 nM throughout.
Regarding `COc1ccc(F)cc1C(=O)NCc1ccc(-c2nn(C(CCN(C)C(=O)n3cncn3)C3CC3)c3ncnc(N)c23)cc1` (stereo not shown) [Compound 161], the IC50 at BTK C481S protein was more than 1000 nM; on BTK wildtype protein, not above 1000 nM.
For the compound `COc1ccc(F)cc1C(=O)NCc1ccc(-c2nn(C[C@@H]3C[C@@H](F)CN3C(=O)n3cncn3)c3ncnc(N)c23)cc1` [Compound 221, N-(4-(4-amino-1-(((2S,4R)-4-fluoro-1-(1H-1,2,4-triazole-1-carbonyl)pyrrolidin-2-yl)methyl)-1H-pyrazolo[3,4-d]pyrimidin-3-yl)benzyl)-5-fluoro-2-methoxybenzamide], the IC50 at BTK C481S protein was not above 1000 nM; at BTK wildtype protein, more than 1000 nM.
Consider `COc1ccc(F)cc1C(=O)NCc1ccc(-c2nn(CC3CCN3C(=O)n3cncn3)c(N)c2C(N)=O)cc1` (stereo not shown) [Compound 145, 1-((1-(1H-1,2,4-triazole-1-carbonyl)azetidin-2-yl)methyl)-5-amino-3-(4-((5-fluoro-2-methoxybenzamido)methyl)phenyl)-1H-pyrazole-4-carboxamide], for which the IC50 on BTK C481S protein and on BTK wildtype protein was not above 1000 nM in each case.
For `COc1ccc(F)cc1C(=O)NCc1ccc(-c2nn(C[C@H]3CCCCN3C(=O)n3cncn3)c3[nH]c(=O)[nH]c(=O)c23)cc1` [Compound 185, (R)-N-(4-(1-((1-(1H-1,2,4-triazole-1-carbonyl)piperidin-2-yl)methyl)-4,6-dioxo-4,5,6,7-tetrahydro-1H-pyrazolo[3,4-d]pyrimidin-3-yl)benzyl)-5-fluoro-2-methoxybenzamide], the IC50 on BTK C481S protein was not above 1000 nM; at BTK wildtype protein, more than 1000 nM.
The like results for `NC(=O)c1c(-c2ccc(Oc3ccccc3)cc2)nn(C2CCCN(C(=O)n3cncn3)C2)c1N` (stereo not shown) [Compound 163, 1-(1-(1H-1,2,4-triazole-1-carbonyl)piperidin-3-yl)-5-amino-3-(4-phenoxyphenyl)-1H-pyrazole-4-carboxamide] were, in that order, not above 1000 nM and not above 1000 nM.
Regarding `COc1ccc(F)cc1C(=O)NCc1ccc(-c2nn(C[C@H]3C[C@@H](C)CCN3C(=O)n3cnnc3)c(N)c2C(N)=O)cc1` [Compound 212, 5-amino-3-(4-((5-fluoro-2-methoxybenzamido)methyl)phenyl)-1-(((2R,4S)-4-methyl-1-(4H-1,2,4-triazole-4-carbonyl)piperidin-2-yl)methyl)-1H-pyrazole-4-carboxamide], the IC50 on BTK C481S protein and at BTK wildtype protein was not above 1000 nM throughout.
In the case of `COc1ccc(F)cc1C(=O)NCc1ccc(-c2nn(-c3ccc(CN(C)C(=O)n4cncn4)cc3)c3ncnc(N)c23)cc1` [Compound 138, N-(4-(4-amino-3-(4-((5-fluoro-2-methoxybenzamido)methyl)phenyl)-1H-pyrazolo[3,4-d]pyrimidin-1-yl)benzyl)-N-methyl-1H-1,2,4-triazole-1-carboxamide], the IC50 at BTK C481S protein and at BTK wildtype protein was not above 1000 nM throughout.
For `COc1ccc(F)cc1C(=O)NCc1ccc(-c2nn(C[C@H]3CCCC[C@@H]3CN(C)C(=O)n3cncn3)c3ncnc(N)c23)cc1` [Compound 193, N-(((1S,2S)-2-((4-amino-3-(4-((5-fluoro-2-methoxybenzamido)methyl)phenyl)-1H-pyrazolo [3,4-d]pyrimidin-1-yl)methyl)cyclohexyl)methyl)-N-methyl-1H-1,2,4-triazole-1-carboxamide], the half-inhibitory concentration (IC50) at BTK C481S protein and on BTK wildtype protein was not above 1000 nM in each case.
Consider `COc1ccc(F)cc1C(=O)NCc1ccc(-c2nn(C[C@H]3CCCCN3C(=O)n3cncn3)c3ncnc(N)c23)cc1` [Compound 104, (R)-N-(4-(1-((1-(1H-1,2,4-triazole-1-carbonyl)piperidin-2-yl)methyl)-4-amino-1H-pyrazolo[3,4-d]pyrimidin-3-yl)benzyl)-5-fluoro-2-methoxybenzamide], for which the IC50 on BTK C481S protein was not above 1000 nM; at BTK wildtype protein it was more than 1000 nM.
With `COc1ccc(F)cc1C(=O)NCc1ccc(-c2nn(-c3cccc(N(C)C(=O)n4cncn4)c3)c3ncnc(N)c23)cc1` [Compound 187, N-(3-(4-amino-3-(4-((5-fluoro-2-methoxybenzamido)methyl)phenyl)-1H-pyrazolo[3,4-d]pyrimidin-1-yl)phenyl)-N-methyl-1H-1,2,4-triazole-1-carboxamide], the IC50 at BTK C481S protein and on BTK wildtype protein was not above 1000 nM each time.
On to `CN(C(=O)n1cncn1)c1ccccc1C1CCNc2c(C(N)=O)c(-c3ccc(Oc4ccccc4)cc3)nn21` (stereo not shown) [Compound 305, 7-(2-(N-methyl-1H-1,2,4-triazole-1-carboxamido)phenyl)-2-(4-phenoxyphenyl)-4,5,6,7-tetrahydropyrazolo[1,5-a] pyrimidine-3-carboxamide], for which the IC50 on BTK C481S protein and at BTK wildtype protein was more than 1000 nM each time.
`COc1ccc(F)cc1C(=O)NCc1ccc(-c2nn(C[C@@H]3CCCCN3C(=O)n3cncn3)c3ncnc(N)c23)cc1` [Compound 274, (S)-N-(4-(1-((1-(1H-1,2,4-triazole-1-carbonyl)piperidin-2-yl)methyl)-4-amino-1H-pyrazolo[3,4-d]pyrimidin-3-yl)benzyl)-5-fluoro-2-methoxybenzamide]: the IC50 on BTK C481S protein and on BTK wildtype protein was not above 1000 nM each time.
On to `NC(=O)c1nn2c(c1-c1ccc(Oc3ccccc3)cc1)NCCC2C1CCCCN1C(=O)n1cncn1` (stereo not shown) [Compound 203, 7-(1-(1H-1,2,4-triazole-1-carbonyl)piperidin-2-yl)-3-(4-phenoxy-phenyl)-4,5,6,7-tetrahydro-pyrazolo[1,5-a]pyrimidine-2-carboxamide], for which the IC50 on BTK C481S protein and at BTK wildtype protein was more than 1000 nM throughout.
In the case of `COc1ccc(F)cc1C(=O)NCc1ccc(-c2nn(CC3CCCCC3N(C)C(=O)n3cncn3)c(N)c2C(N)=O)cc1` (stereo not shown) [Compound 229, N-(2-((5-amino-4-carbamoyl-3-(4-((5-fluoro-2-methoxybenzamido)methyl)phenyl)-1H-pyrazol-1-yl)methyl)cyclohexyl)-N-methyl-1H-1,2,4-triazole-1-carboxamide], the IC50 at BTK C481S protein and on BTK wildtype protein was not above 1000 nM throughout.
With `CN(C(=O)n1cncn1)[C@@H]1CCC[C@@H](n2nc(-c3ccc(Oc4ccccc4)cc3)c(C(N)=O)c2N)C1` [Compound 247, N-((1R,3R)-3-(5-amino-4-carbamoyl-3-(4-phenoxyphenyl)-1H-pyrazol-1-yl)cyclohexyl)-N-methyl-1H-1,2,4-triazole-1-carboxamide], the IC50 on BTK C481S protein and at BTK wildtype protein was not above 1000 nM throughout.
Regarding `CN(C(=O)n1cncn1)C1CCCCC1n1nc(-c2ccc(Oc3ccccc3)cc2)c2c(N)ncnc21` (stereo not shown) [Compound 263, N-(2-(4-amino-3-(4-phenoxyphenyl)-1H-pyrazolo[3,4-d]pyrimidin-1-yl)cyclohexyl)-N-methyl-1H-1,2,4-triazole-1-carboxamide], the half-inhibitory concentration (IC50) at BTK C481S protein and at BTK wildtype protein was not above 1000 nM each time.
As to `COc1ccc(C)cc1C(=O)NCc1ccc(-c2nn(CC3CCCCN3C(=O)n3cnnn3)c3ncnc(N)c23)cc1` (stereo not shown) [Compound 158, N-(4-(1-((1-(1H-tetrazole-1-carbonyl)piperidin-2-yl)methyl)-4-amino-1H-pyrazolo[3,4-d]pyrimidin-3-yl)benzyl)-2-methoxy-5-methylbenzamide], the IC50 on BTK C481S protein is more than 1000 nM; on BTK wildtype protein, not above 1000 nM.
Take `CCN(C(=O)n1cncn1)C1CCC(n2nc(-c3ccc(Oc4ccccc4)cc3)c3c(N)ncnc32)C1` (stereo not shown) [Compound 179, N-(3-(4-amino-3-(4-phenoxyphenyl)-1H-pyrazolo[3,4-d]pyrimidin-1-yl)cyclopentyl)-N-ethyl-1H-1,2,4-triazole-1-carboxamide]: the IC50 at BTK C481S protein and on BTK wildtype protein was not above 1000 nM throughout.
`COc1ccc(F)cc1C(=O)NCc1ccc(-c2nn(C(CC3CCC3)CN(C)C(=O)n3cncn3)c3ncnc(N)c23)cc1` (stereo not shown) [Compound 139, N-(2-(4-amino-3-(4-((5-fluoro-2-methoxybenzamido)methyl)phenyl)-1H-pyrazolo[3,4-d]pyrimidin-1-yl)-3-cyclobutylpropyl)-N-methyl-1H-1,2,4-triazole-1-carboxamide]: the IC50 at BTK C481S protein and at BTK wildtype protein was more than 1000 nM each time.
In the case of `COc1ccc(F)cc1C(=O)NCc1ccc(-c2nn(C3(CCN(C)C(=O)n4cncn4)CC3)c3ncnc(N)c23)cc1` [Compound 225, N-(2-(1-(4-amino-3-(4-((5-fluoro-2-methoxybenzamido)methyl)phenyl)-1H-pyrazolo[3,4-d]pyrimidin-1-yl)cyclopropyl)ethyl)-N-methyl-1H-1,2,4-triazole-1-carboxamide], the figures for the IC50 on BTK C481S protein and on BTK wildtype protein were more than 1000 nM and not above 1000 nM, respectively.
In the case of `NC(=O)c1c(-c2ccc(Oc3ccccc3)cc2)nn(C2CCCCN(C(=O)n3cncn3)C2)c1N` (stereo not shown) [Compound 159, 1-(1-(1H-1,2,4-triazole-1-carbonyl)azepan-3-yl)-5-amino-3-(4-phenoxyphenyl)-1H-pyrazole-4-carboxamide], the IC50 on BTK C481S protein and on BTK wildtype protein was not above 1000 nM each time.
